Measured values reported in publication doi:10.1101/2023.08.21.552681v1 (biorxiv, 2023).

biological target: T1, ctdWDR91 (Homo sapiens, UniProt A4D1P6); test: biochemical
T1 sequence (A4D1P6 392-747): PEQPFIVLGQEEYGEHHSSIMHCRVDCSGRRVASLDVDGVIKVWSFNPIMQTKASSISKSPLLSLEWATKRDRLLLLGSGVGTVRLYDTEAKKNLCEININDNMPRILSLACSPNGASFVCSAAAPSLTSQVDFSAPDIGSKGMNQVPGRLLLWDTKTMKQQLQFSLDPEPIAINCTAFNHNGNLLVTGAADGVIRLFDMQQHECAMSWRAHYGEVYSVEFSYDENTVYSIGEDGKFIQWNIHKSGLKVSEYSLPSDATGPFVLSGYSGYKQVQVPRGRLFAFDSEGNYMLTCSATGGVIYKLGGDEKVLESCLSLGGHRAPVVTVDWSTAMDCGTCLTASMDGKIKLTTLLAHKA

SMILES | Kd
Cc1cc(N2CCC(COC(=O)C3COc4ccccc43)C2)ccc1F (centres unmarked) [MRGG045298a] | > 45 µM
O=C(NCc1ccc(N2CCCC2)cc1)c1ccc(F)cc1 [XSGG119722b] | > 45 µM
CNC(=O)c1ccc(NC2CC3CCC(C2)N3C)nc1 (centres unmarked) [MRGG045318a] | > 45 µM
Cc1cc(O)c(O)cc1C(=O)N[C@H]1CC(=O)N(C)[C@@H]1c1ccc(Cl)cc1 [MRGG045330a] | > 45 µM
CN1CCOC(C(NC(=O)c2cncc3cnccc23)c2ccc(Cl)cc2)C1 (centres unmarked) [MRGG045276a] | > 45 µM
Cn1ccc(C(=O)Nc2ccc(N3CCCCC3)c3ccncc23)cc1=O [MRGG044838a] | > 45 µM
CC1c2cccn2CCN1C(=O)c1cc(Br)cc(N2CCCC2)c1 (centres unmarked) [MRGG044826a] | > 45 µM
CNC(=O)c1cc(C)nc(N2CCC3(CC2)CN(C)c2ccccc23)n1 [MRGG045287a] | > 45 µM
CN(CCc1ccccc1)C(=O)Cc1ccc(O)c(O)c1 [UBGG028860b] | > 45 µM
CC(NC(=O)c1ccc(CNC(N)=O)cc1)c1ccc(Cl)c(Cl)c1 (centres unmarked) [MRGG044836a] | > 45 µM
O=C(NC(CO)c1ccc(Cl)cc1)c1cccc2cn[nH]c12 (centres unmarked) [MRGG044832a] | > 45 µM
CN(CC1CCN(Cc2ccccc2)C1)C(=O)Cc1cccc(O)c1 (centres unmarked) [MRGG044819a] | > 45 µM
COc1cc(C)nc(NC(=O)c2ccoc2C2CC2)n1 [MRGG044772b] | > 45 µM
O=C(NC(CCO)c1ccc(Cl)cc1)c1ccc(CN2CCCC2=O)cc1 (centres unmarked) [MRGG045272a] | > 45 µM
CN1CCC2(CCCN(C(=O)c3cccnc3C(N)=O)C2)C1 (centres unmarked) [MRGG045271a] | > 45 µM
c1ccc2oc(-c3n[nH]cc3CNCC3CCN(C4CC4)C3)cc2c1 (centres unmarked) [MRGG044801a] | > 45 µM
O=C(NCc1ccc2c(c1)OCO2)c1ccc2snnc2c1 [MRGG044780a] | 17 µM
Cc1nn2cc(C(=O)N(C)CCc3cccc(C#N)c3)nc2s1 [MRGG045278a] | > 45 µM
CNC(=O)c1cccnc1N1C[C@@H]2CN(C)C[C@]2(C)C1 [MRGG045301a] | > 45 µM
Cc1nc2sccn2c1C(=O)N(C)Cc1cccc(F)c1 [UBGG013392b] | > 45 µM
O=c1c2c(F)cccc2ncn1CC1CCN(C2CC2)C1 (centres unmarked) [MRGG044781a] | > 45 µM

SMILES | Kd
COCC1CCN(c2ccc(C(=O)N3C[C@@H]4C[C@H]3CN4C3CC3)cc2)C1 (some centres unmarked) [MRGG045264a] | > 45 µM
CN(CCc1ccccc1F)C(=O)c1cnc2sccn12 [MRGG045268a] | > 45 µM
COC(=O)c1ccc(C(=O)N2C3CCC2CN(C)C3)cn1 [MRGG045263a] | > 45 µM
Cc1cccc(C#CCN2C[C@@H]3C[C@H]2CN3C2CC2)c1 [MRGG045294a] | > 45 µM
CC(NC(=O)c1cccc(N2CCCC2)c1)(C(=O)O)c1ccccc1 (centres unmarked) [MRGG044796a] | > 45 µM
Cc1nc(N(C)C)sc1CCNc1cc(C(F)(F)F)cc(C#N)n1 [MRGG044814a] | > 45 µM
Cc1cc(C#N)nc(NC2CC(C)N(C3CC3)C2)n1 (centres unmarked) [MRGG044798a] | > 45 µM
O=C(Nc1ccc2oc(=O)ccc2c1)c1cc(F)c(F)cc1[N+](=O)[O-] [MRGG044828a] | > 45 µM
CN1C(=O)CC(C(=O)NCc2ccc(O)c(O)c2)C1c1ccc(Cl)c(Cl)c1 (centres unmarked) [MRGG045316a] | > 45 µM
Cc1cc(N2CCN(C(=O)c3cc(F)c(F)cc3[N+](=O)[O-])CC2)c(F)cc1[N+](=O)[O-] [MRGG044777a] | > 45 µM
O=C(NC1CCN(c2cccc(Cl)c2)C1)c1cccc2c1OCO2 (centres unmarked) [MRGG044807a] | > 45 µM
CN(Cc1ccccc1-n1cccc1)C(=O)C1CCCN1C1CC1 (centres unmarked) [MRGG045309a] | > 45 µM
O=C(NCC1CCN(C2CC2)C1)c1ccc(Cl)cc1 (centres unmarked) [MRGG044816a] | > 45 µM
NC(=O)NC(CC(=O)Nc1ccc(N2CCCC2)cc1)c1ccc(Cl)cc1 (centres unmarked) [XSGG048242e] | > 45 µM
Cc1c(C(=O)NCc2n[nH]c(N)n2)n(C)c2ccc(F)cc12 [MRGG044784a] | > 45 µM
CC1CC(NC(=O)c2c[nH]c3cccc(Cl)c23)CN1C1CC1 (centres unmarked) [MRGG045323a] | > 45 µM
CC(NC(=O)CN(C)C1CCN(C2CC2)C1)c1ccc(Br)cc1 (centres unmarked) [MRGG045280a] | > 45 µM
Cc1nn(C)cc1C1=NOC(C(=O)N[C@H](C)c2ccc(Br)cc2)C1 (some centres unmarked) [MRGG045282a] | > 45 µM
CN1CCC(O)(CNC(=O)c2cnc3cc[nH]c3c2)C1 (centres unmarked) [MRGG045295a] | > 45 µM
NC(=O)C1(NC(=O)c2ccc3cccnc3c2)Cc2ccccc2C1 [MRGG045265a] | > 45 µM
CN(CCc1ccccc1)C(=O)c1nc2sccn2c1CN1CC[C@H](O)C1 [MRGG044785a] | > 45 µM

SMILES | Kd
Cc1ccc(CN2CCC(CN(C)C3CC3)C2)s1 (centres unmarked) [MRGG045327a] | > 45 µM
COC(=O)c1cccc(-c2cccc(NC3CCN(C4CC4)C3)c2)c1 (centres unmarked) [MRGG045314a] | > 45 µM
N#Cc1cc(C(F)(F)F)cc(N2CCCN(C3CC3)CC2)n1 [MRGG045289a] | > 45 µM
CCCC(NC(=O)c1cc(O)c(O)cc1C)C(=O)N(C)C (centres unmarked) [MRGG045321a] | > 45 µM
N#Cc1cccc2c1CCN(C(=O)NCC1CCN(c3ccc(Cl)cc3)C1)C2 (centres unmarked) [MRGG045297a] | > 45 µM
CC(NC(=O)c1ccc2c(=O)n3c(nc2c1)CCC3)c1ccc(Cl)cc1 (centres unmarked) [MRGG044821a] | > 45 µM
CC(C)(C)OC(=O)N1CCC2(CC(N)c3ccccc3O2)C1 (centres unmarked) [MRGG044817a] | > 45 µM
c1ccc2c(c1)OCCCC2NC1CCN(C2CC2)C1 (centres unmarked) [MRGG044835a] | > 45 µM
NC12CCCC1CN(C(=O)c1nccc3cccnc13)C2 (centres unmarked) [MRGG044815a] | > 45 µM
CC1CN(C2CC2)CC1NC1CCN(C2CC2)CC1 (centres unmarked) [MRGG045338a] | > 45 µM
O=C1Cc2ccc(C(=O)NC3Cc4ccccc4C3O)cc2N1 (centres unmarked) [MRGG044800a] | > 45 µM
CC1(C)CN(C(=O)c2snc(O)c2Cl)c2ccc(Cl)cc21 [MRGG045317a] | > 45 µM
Cc1cc2ccccc2n1CC(=O)Nc1cc(C(N)=O)ccc1N1CCCC1 [MRGG044789a] | > 45 µM
CC1CN(C2CC2)CC1NC(=O)CCCCc1c[nH]c2ccccc12 (centres unmarked) [MRGG045292a] | > 45 µM
CN(C1CCN(C2CC2)C1)S(=O)(=O)c1cccc2ccoc12 (centres unmarked) [MRGG045312a] | > 45 µM
COc1ccc(C(NC(=O)C2CC(C)=NO2)c2ccc(Cl)cc2)cc1 (centres unmarked) [MRGG045275a] | > 45 µM
CN(C(=O)c1c(C2CC2)nc2sccn12)C1CCN(C2CC2)C1 (centres unmarked) [MRGG045293a] | > 45 µM
COc1ccc(CC(=O)N(C)Cc2cccc(N3CCCC3)c2)cc1[N+](=O)[O-] [MRGG045329a] | > 45 µM
CN(Cc1ccccc1OCc1ccccc1F)C1CCN(C2CC2)C1 (centres unmarked) [MRGG045303a] | > 45 µM

Results, then the compound that gave them:

Kd | SMILES
> 45 µM | O=C(c1ccccc1)N1CCC(CN(C2CC2)C2CC2)C1 (centres unmarked) [MRGG045320a]
> 45 µM | CN(CCCc1ccccc1)C(=O)c1cn2ccnc2s1 [MRGG045270a]
> 45 µM | COc1cccc2c1OCCCN(C(=O)c1cn3ccsc3n1)C2 [MRGG044787a]
> 45 µM | O=C(NCCc1ccc(O)c(O)c1)Nc1cccc(N2CCNC2=O)c1 [MRGG044825a]
> 45 µM | CC1CN(C2CC2)CC1NCc1ccccc1-n1ccnc1 (centres unmarked) [MRGG044802a]
> 45 µM | COC(=O)c1ccccc1NC(=O)c1ccc2nnsc2c1 [MRGG044841a]
> 45 µM | O=C1NCC2(CC2)C(=O)N1CC1CCN(c2cccc(Br)c2)C1 (centres unmarked) [MRGG045328a]
> 45 µM | c1nc(NC2CCN(C3CC3)C2)c2ccsc2n1 (centres unmarked) [MRGG044830a]
> 45 µM | Cc1ccc(C(=O)NC(c2ccc(Cl)cc2)C2CC2)cc1[N+](=O)[O-] (centres unmarked) [MRGG044833a]
> 45 µM | CN(C)C1(CNC(=O)c2ccc3oc(=O)[nH]c3c2)Cc2ccccc2C1 [MRGG044797a]
> 45 µM | Cc1ccccc1CN1CC(=O)N(CC2CCN(c3ccc(F)cc3)C2)C1=O (centres unmarked) [MRGG045291a]
> 45 µM | O=C(NCc1ccc2cnccc2c1)c1snc(O)c1Cl [MRGG045296a]
> 45 µM | CC1CCN(c2ccc(C(=O)N3c4ccccc4CC3CO)cc2)C1 (centres unmarked) [MRGG044805a]
> 45 µM | O=C(Cc1ccc(O)c(O)c1)NC(CC1CC1)c1ccc(Cl)cc1 (centres unmarked) [MRGG045306a]
> 45 µM | Cc1ccc(C(=O)N(C)C)cc1-c1cccc(N2CCCC2)c1 [MRGG045315a]
> 45 µM | O=[N+]([O-])c1ccc(N2CCCC2)cc1NCc1ccc(Cl)cc1 [MRGG044778a]

Kd | SMILES
> 45 µM | CC1(CNC2CCN(C3CC3)C2)CCN(C(=O)OC(C)(C)C)C1 (centres unmarked) [MRGG045285a]
> 45 µM | O=C(NC(CCO)c1ccc(Cl)c(Cl)c1)c1ccc2c(c1)NC(=O)C1CCCN21 (centres unmarked) [MRGG045335a]
> 45 µM | CNC(=O)[C@@H](NC(=O)c1ccc2[nH]ccc2n1)C(C)C [MRGG044793a]
> 45 µM | O=C(Cc1cn2ccsc2n1)NC1(c2ccc(Cl)cc2)CC1 [MRGG044790a]
> 45 µM | O=C(CSc1nnc(-c2ccc(Cl)cc2)o1)NCc1ccc(O)c(O)c1 [MRGG045283a]
> 45 µM | CN(C(=O)Cc1coc2ccccc12)C1CCN(C(=O)OC(C)(C)C)C1 (centres unmarked) [MRGG045302a]
> 45 µM | c1ccc(-n2ncc3c(NCC4CCN(C5CC5)C4)ncnc32)cc1 (centres unmarked) [MRGG045311a]
> 45 µM | CC1CN(C2CC2)CC1NS(=O)(=O)c1cnn(-c2ccccc2)c1 (centres unmarked) [MRGG044803a]
> 45 µM | c1ccc(CN2CCC3(CCN(C4CC4)C3)C2)cc1 (centres unmarked) [MRGG045337a]
> 45 µM | CS(=O)(=O)N1CCC(CN(Cc2cccc(F)c2)C2CC2)C1 (centres unmarked) [MRGG045308a]
> 45 µM | O=C(Nc1cccc2cnccc12)c1cccc([N+](=O)[O-])c1 [MRGG044720b]
> 45 µM | OC1CN(C2CC2)CC1N1CCc2ccccc2C1 (centres unmarked) [MRGG045310a]
> 45 µM | CCN1CCN(c2ccc(C(=O)N(C)c3cccc(C)c3)cc2F)CC1 [MRGG045277a]
> 45 µM | CC(=O)N1CCCC(C(=O)N(C)CCc2ccc(F)cc2)C1 (centres unmarked) [MRGG044837a]
> 45 µM | N#Cc1cc(Br)cc(N2CCCC2)c1 [MRGG044812a]
